How the values were obtained:
[1] = system: globules rouges et les plaquettes; assay: Red blood cell and platelet counts after 7 days of oral AZT, Muradimétide or both (Example 3, figures 9 and 10); type: in vivo, souris femelles BALB/c; conditions: p.o. once daily for 7 days: 100 mg/kg AZT, 50 mg/kg muradimétide, or both simultaneously; counts up to day 10
Text: La figure 9 représente l'effet du traitement per os de souris BALB/c pendant 7 jours consécutifs avec de l'AZT, du Muradimétide (MDM) ou un mélange de ceux-ci sur la numération plaquettaire.
La figure 10 représente l'effet du traitement per os de souris BALB/c pendant 7 jours consécutifs avec de l'AZT, du Muradimétide (MDM) ou un mélange de ceux-ci sur le nombre des globules rouges.
L'effet d'un traitement de 7 jours sur le nombre de globules rouges et de plaquettes est indiqué dans les figures 9 et 10 respectivement. Les numérations sont représentées en pourcentage de celles obtenues au jour 0. Des souris femelles BALB/c (5 par groupe) sont traitées une fois par jour pendant 7 jours consécutifs par 100 mg/kg d'AZT (Δ), 50 mg/kg de muradimétide (D) ou simultanément par 100 mg/kg d'AZT et 50 mg/kg de muradimétide (O). Les comptages de plaquettes ou de globules rouges ont été réalisés au jour 0 et jusqu'à 10 jours suivant le début du traitement. […] La tendance à l'augmentation de leur nombre apparaît entre les jours 4 et 5. En revanche, l'anémie qui pourrait être observée dans les groupes traités pourrait être due aux saignements répétés; néanmoins la vitesse et l'importance de l'anémie est grandement réduite chez les animaux traités avec le mélange des deux produits en comparaison avec celui observé dans le groupe traité par l'AZT seul. […]

myélocytes circulants = assay: Circulating myelocytes during two weeks of oral treatment, 4 days per week (Example 4, figure 11); type: in vivo, souris; conditions: p.o. days 0, 1, 2, 3 and 7, 8, 9, 10; MDM 25 mg/kg, AZT 50 mg/kg or both
Method: La figure 11 représente l'effet d'un traitement per os de souris pendant deux semaines consécutives (4 jours par semaine) avec l'AZT, le Muradimétide ou le mélange des deux sur le nombre des myélocytes circulants.
La figure 11 montre l'effet d'un traitement par le MDM à 25 mg/kg (X), de l'AZT à 50 mg/kg (O) et du mélange des deux (□) sur le comptage des myélocytes de souris traitées pendant 2 semaines aux jours 0, 1, 2, 3 de la première semaine et 7, 8, 9, 10 de la deuxième semaine. […] Si l'effet est surtout marqué au niveau de la première semaine, cela montre que le traitement nécessite un certain espace de temps entre les différents cycles de traitement et que des traitements répétés pourraient, le cas échéant, être utiles.

myélocytes = assay: Comparison of oral Muradimétide and MDPA on myelocyte count after i.v. AZT (Example 10, figure 8); type: in vivo, souris swiss femelles; conditions: AZT 40 mg/kg i.v. days 0-3; MDPA 25 mg/kg p.o. 4 h before AZT
Text: La figure 8 représente l'effet d'un traitement per os des souris avec du Muradimétide sur le changement de la numération myélocyte dans le sang circulant induite suite à une administration intra-veineuse d'AZT, deux dérivés de MDP étant comparés : le MDPA (Nac-Mur-L-ALa-D-Glu) et le Muradimétide.
Le dérivé utilisé pour mettre en évidence l'effet particulier du Muradimétide est le MDPA. La figure 8 indique l'effet sur des souris d'un traitement per os sur les changements de la numération de myélocyte induite suite à une administration intraveineuse d'AZT. Dans cette expérience, les souris swiss femelles ont été traitées de façon intraveineuse avec 40 mg par kg d'AZT aux jours 0, 1, 2 et 3. Des groupes de 5 souris ont reçu aux mêmes quatre jours et 4 heures avant l'AZT soit de l'eau physiologique, soit du MDPA à la dose de 25 mg par kg ou du Muradimétide par voie orale à la dose de 25 mg par kg. Les comptages de myélocytes ont été réalisés aux jours 0, 2, 3, 4 et 8. Les étoiles au-dessus des histogrammes ont la même signification que dans les diagrammes précédents.

Row | SMILES | toxicité sur les plaquettes [1] | effet sur la mobilisation des CHS (comptage des myélocytes) (myélocytes circulants) | effet antimyélotoxique et mobilisation des CSH dans la circulation sanguine (myélocytes)
1 | Cc1cn([C@H]2C[C@H](N=[N+]=[N-])[C@@H](CO)O2)c(=O)[nH]c1=O [AZT, 3'-Azido-3'-desoxy-thymidine, reference compound] | Aucune toxicité | strictement aucun effet | –
2 | CC(=O)N[C@H]1C(O)O[C@H](CO)[C@@H](O)[C@@H]1O[C@H](C)C(=O)N[C@@H](C)C(=O)N[C@H](CCC(=O)O)C(=O)O (stereo partly drawn) [MDPA, Nac-Mur-L-ALa-D-Glu] | – | – | n'étant pas retrouvé
